Results from US20250387443A1, “ENHANCING ONCOLYTIC V[…] A COMBINATION OF NUCLEAR EXPORT INHIBITOR AND MYXOMA VIRUS […] DEATH PATHWAYS” (Arizona Board of Regents on behalf of Arizona State …, priority 2024, published 2025).

Key:
Colo205 cells = type: cell-based, human
2D and 3D cell cultures = assay: MYXV replication in 2D and 3D cell cultures; type: cell-based
PANC-1 cells [1] = type: cell-based, human
[2] = tested on: human xenograft tumor models; assay: MYXV replication in human xenograft tumor models; type: in vivo; conditions: human xenograft tumor models in NSG mice
PANC-1 cells [3] = type: cell-based, human; remark: listed apart in the source
MDA-MB435 cells = type: cell-based, human

O=C(/C=C\n1cnc(-c2cc(C(F)(F)F)cc(C(F)(F)F)c2)n1)NNc1cnccn1 [selinexor]
significantly enhanced: MYXV gene expression and replication (Colo205 cells) | MYXV replication (2D and 3D cell cultures) | replication of vMyx-M11L-KO (progeny virus) (PANC-1 cells [1]) | replication of vMyx-hLIGHT (progeny virus) (PANC-1 cells [1]) | MYXV replication [2] | MYXV gene expression and replication (PANC-1 cells [3]) | MYXV gene expression and replication (MDA-MB435 cells)
